The assay concerns test plant species. In words: Post-emergent herbicidal activity test (greenhouse, foliar spray, visual growth reduction). Format: in vivo. As to conditions: post-emergence, 336 h, 140 g ai/ha. A digest of the protocol:
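Visual scoring 14 d after treatment (0 = no injury, 100 = complete control) against nontreated and solvent-blank plants gave percent growth reduction. Foliar application used a track sprayer delivering 187 L/ha to seedlings at first or second true leaf stage, grown at 23–29 °C day, ~15 h photoperiod.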

[1] abbreviates: ECHCG: barnyardgrass (Echinochloa crus-galli), 14 days after application, read-out: Visual Growth Reduction (%) 14 Days After Application, ECHCG.
Setting [2] is: IPOHE: ivy-leaf morning glory (Ipomoea hederacea), 14 days after application, read-out: Visual Growth Reduction (%) 14 Days After Application, IPOHE.
The mark [3] stands for this setting: KCHSC: kochia (Bassia scoparia), 14 days after application, read-out: Visual Growth Reduction (%) 14 Days After Application, KCHSC.
[4] abbreviates: ORYSA: rice (Oryza sativa), 14 days after application, read-out: Visual Growth Reduction (%) 14 Days After Application, ORYSA.
Setting [5] is: SETFA: giant foxtail (Setaria faberi), 14 days after application, read-out: Visual Growth Reduction (%) 14 Days After Application, SETFA.
[6] abbreviates: SORVU: grain sorghum (Sorghum vulgare), 14 days after application, read-out: Visual Growth Reduction (%) 14 Days After Application, SORVU.
The mark [7] stands for this setting: STEME: common chickweed (Stellaria media), 14 days after application, read-out: Visual Growth Reduction (%) 14 Days After Application, STEME.
Setting [8] is: TRZAS: wheat, spring (Triticum aestivum), 14 days after application, read-out: Visual Growth Reduction (%) 14 Days After Application, TRZAS.
Where [9] appears, read: blackgrass (Alopecurus myosuroides), 14 Days After Application, read-out: Visual Growth Reduction (%) ALOMY.
[10] abbreviates: canada thistle (Cirsium arvense), 14 Days After Application, read-out: Visual Growth Reduction (%) CIRAR.
The mark [11] stands for this setting: crabgrass (Digitaria sanguinalis), 14 Days After Application, read-out: Visual Growth Reduction (%) DIGSA.
Setting [12] is: lambsquarters (Chenopodium album), 14 Days After Application, read-out: Visual Growth Reduction (%) CHEAL.
Where [13] appears, read: redroot pigweed (Amaranthus retroflexus), 14 Days After Application, read-out: Visual Growth Reduction (%) AMARE.
[14] abbreviates: wild oat (Avena fatua), 14 Days After Application, read-out: Visual Growth Reduction (%) AVEFA.
The mark [15] stands for this setting: yellow nutsedge (Cyperus esculentus), 14 Days After Application, read-out: Visual Growth Reduction (%) CYPES.

Like-named read-outs stand apart in the source and are kept apart here.

With `COC(=O)c1nc(-c2ccc(I)cc2F)c(F)cc1Cl` [F328, methyl 3-chloro-5-fluoro-6-(2-fluoro-4-iodophenyl)picolinate], the pest or weed control at 140 g/ha under setting [1] lay within 0 to 29%; the pest or weed control at 140 g/ha under setting [2] was in the range of 85 to 94%; the pest or weed control at 140 g/ha under setting [3] lay in the range of 0 to 29%; the pest or weed control at 140 g/ha under setting [4] is 0 to 29%; the pest or weed control at 140 g/ha under setting [5] was 30 to 44%; the pest or weed control at 140 g/ha under setting [6] lay in the range of 75 to 84%. Further, the pest or weed control at 140 g/ha is, setting by setting: under setting [7], 0 to 29%; under setting [8], 0 to 29%; under setting [9], 0 to 29%; under setting [10], 0 to 29%; under setting [11], 75 to 84%; under setting [12], 0 to 29%. Also, the pest or weed control at 140 g/ha under setting [13] lay within 30 to 44%, the pest or weed control at 140 g/ha under setting [14] lay within 0 to 29% and the pest or weed control at 140 g/ha under setting [15] fell in the range of 0 to 29%.

For `N#Cc1cc(-c2nc(C(=O)O)c(Cl)cc2F)c(Cl)cc1C(F)(F)F` [F329, 3-Chloro-6-(2-chloro-5-cyano-4-(trifluoromethyl)phenyl)-5-fluoropicolinic acid], the pest or weed control at 140 g/ha is, setting by setting: under setting [1], 60 to 74%; under setting [2], 95 to 100%; under setting [3], 60 to 74%; under setting [4], 0 to 29%; under setting [5], 85 to 94%; under setting [6], 75 to 84%. Also, the pest or weed control at 140 g/ha was 0 to 29% under setting [7]; 45 to 59% under setting [8]; 0 to 29% under setting [9]; 85 to 94% under setting [10]; 75 to 84% under setting [11]; 75 to 84% under setting [12]. The pest or weed control at 140 g/ha was 60 to 74% under setting [13], 60 to 74% under setting [14] and 0 to 29% under setting [15].

Consider `COC(=O)c1nc(-c2ccc3ccsc3c2F)c(Cl)cc1Cl` [F330, Methyl 3,5-dichloro-6-(7-fluorobenzo[b]thiophen-6-yl)picolinate], for which the pest or weed control at 140 g/ha was in the range of 0 to 29% under setting [1]; 0 to 29% under setting [2]; 0 to 29% under setting [3]; 0 to 29% under setting [4]; 0 to 29% under setting [5]; 0 to 29% under setting [6]. In addition, the pest or weed control at 140 g/ha by setting is: under setting [7], 0 to 29%; under setting [8], 0 to 29%; under setting [9], 0 to 29%; under setting [11], 0 to 29%; under setting [12], 0 to 29%; under setting [13], 0 to 29%. Moreover, the pest or weed control at 140 g/ha is, setting by setting: under setting [14], 0 to 29%; under setting [15], 30 to 44%.

`COC(=O)c1nc(-c2cc(OC)c(C(F)(F)F)cc2Cl)c(F)cc1Cl` [F331, Methyl 3-chloro-6-(2-chloro-5-methoxy-4-(trifluoromethyl)phenyl)-5-fluoropicolinate]: the pest or weed control at 140 g/ha under setting [1] was in the range of 0 to 29%; the pest or weed control at 140 g/ha under setting [2] lay within 95 to 100%; the pest or weed control at 140 g/ha under setting [3] fell in the range of 60 to 74%; the pest or weed control at 140 g/ha under setting [4] is 0 to 29%; the pest or weed control at 140 g/ha under setting [5] was in the range of 0 to 29%; the pest or weed control at 140 g/ha under setting [6] was in the range of 45 to 59%. For the same compound, the pest or weed control at 140 g/ha under setting [7] lay in the range of 0 to 29%; the pest or weed control at 140 g/ha under setting [8] lay within 0 to 29%; the pest or weed control at 140 g/ha under setting [9] lay within 0 to 29%; the pest or weed control at 140 g/ha under setting [11] was in the range of 0 to 29%; the pest or weed control at 140 g/ha under setting [12] is 45 to 59%; the pest or weed control at 140 g/ha under setting [13] is 45 to 59%. Besides, the pest or weed control at 140 g/ha lay in the range of 0 to 29% under setting [14] and 0 to 29% under setting [15].

Consider `COC(=O)c1nc(-c2cc(SC)c(C(F)(F)F)cc2Cl)c(F)cc1Cl` [F332, Methyl 3-chloro-6-(2-chloro-5-(methylthio)-4-(trifluoromethyl)phenyl) 5-fluoropicolinate], for which the pest or weed control at 140 g/ha lay within 0 to 29% under setting [1]; 0 to 29% under setting [2]; 30 to 44% under setting [3]; 0 to 29% under setting [4]; 0 to 29% under setting [5]; 0 to 29% under setting [6]. The pest or weed control at 140 g/ha by setting is: under setting [7], 0 to 29%; under setting [8], 0 to 29%; under setting [9], 0 to 29%; under setting [11], 0 to 29%; under setting [12], 0 to 29%; under setting [13], 0 to 29%. The pest or weed control at 140 g/ha lay in the range of 0 to 29% under setting [14] and 0 to 29% under setting [15].

For `COC(=O)c1nc(-c2cc3c(cc2OC)OC(F)(F)O3)c(F)cc1Cl` [F333, Methyl 3-chloro-6-(2,2-difluoro-6-methoxybenzo[d][1,3]dioxol-5-yl)-5-fluoropicolinate], the pest or weed control at 140 g/ha under setting [1] fell in the range of 30 to 44%; the pest or weed control at 140 g/ha under setting [2] is 95 to 100%; the pest or weed control at 140 g/ha under setting [3] was in the range of 30 to 44%; the pest or weed control at 140 g/ha under setting [4] lay within 0 to 29%; the pest or weed control at 140 g/ha under setting [5] was in the range of 30 to 44%; the pest or weed control at 140 g/ha under setting [6] was 85 to 94%. Further, the pest or weed control at 140 g/ha reads like this: under setting [7], 0 to 29%; under setting [8], 45 to 59%; under setting [9], 0 to 29%; under setting [11], 60 to 74%; under setting [12], 0 to 29%; under setting [13], 30 to 44%. In addition, the pest or weed control at 140 g/ha reads like this: under setting [14], 0 to 29%; under setting [15], 0 to 29%.

As to `O=C(O)c1nc(-c2cc3c(cc2F)OC(F)(F)O3)c(F)cc1Cl` [F334, 3-Chloro-5-fluoro-6-(2,2,6-trifluorobenzo[d][1,3]dioxol-5-yl)picolinic acid], the pest or weed control at 140 g/ha is 75 to 84% under setting [1]; 95 to 100% under setting [2]; 60 to 74% under setting [3]; 45 to 59% under setting [4]; 75 to 84% under setting [5]; 95 to 100% under setting [6]. The pest or weed control at 140 g/ha under setting [7] lay within 0 to 29%; the pest or weed control at 140 g/ha under setting [8] was in the range of 75 to 84%; the pest or weed control at 140 g/ha under setting [9] lay within 75 to 84%; the pest or weed control at 140 g/ha under setting [11] fell in the range of 95 to 100%; the pest or weed control at 140 g/ha under setting [12] fell in the range of 75 to 84%; the pest or weed control at 140 g/ha under setting [13] fell in the range of 75 to 84%. For the same compound, the pest or weed control at 140 g/ha reads like this: under setting [14], 60 to 74%; under setting [15], 60 to 74%.

As for `COC(=O)c1nc(-c2cc3c(cc2F)OC(F)(F)O3)c(OC)cc1Cl` [F335, Methyl 3-chloro-5-methoxy-6-(2,2,6-trifluorobenzo[d][1,3]dioxol-5-yl)picolinate], the pest or weed control at 140 g/ha under setting [1] was in the range of 0 to 29%; the pest or weed control at 140 g/ha under setting [2] was 0 to 29%; the pest or weed control at 140 g/ha under setting [3] was in the range of 0 to 29%; the pest or weed control at 140 g/ha under setting [4] fell in the range of 0 to 29%; the pest or weed control at 140 g/ha under setting [5] lay in the range of 0 to 29%; the pest or weed control at 140 g/ha under setting [6] was 0 to 29%. Moreover, the pest or weed control at 140 g/ha lay in the range of 0 to 29% under setting [7]; 0 to 29% under setting [8]; 0 to 29% under setting [9]; 0 to 29% under setting [11]; 30 to 44% under setting [12]; 0 to 29% under setting [13]. The pest or weed control at 140 g/ha under setting [14] lay in the range of 0 to 29% and the pest or weed control at 140 g/ha under setting [15] fell in the range of 0 to 29%.

As for `COC(=O)c1nc(-c2cc3c(cc2F)OC(F)(F)O3)c(F)cc1OC` [F336, Methyl 5-fluoro-3-methoxy-6-(2,2,6-trifluorobenzo[d][1,3]dioxol-5-yl)picolinate], the pest or weed control at 140 g/ha runs as follows: under setting [1], 0 to 29%; under setting [2], 0 to 29%; under setting [3], 0 to 29%; under setting [4], 0 to 29%; under setting [5], 0 to 29%; under setting [6], 75 to 84%. Moreover, the pest or weed control at 140 g/ha runs as follows: under setting [7], 0 to 29%; under setting [8], 30 to 44%; under setting [9], 0 to 29%; under setting [11], 60 to 74%; under setting [12], 30 to 44%; under setting [13], 30 to 44%. Also, the pest or weed control at 140 g/ha under setting [14] fell in the range of 0 to 29% and the pest or weed control at 140 g/ha under setting [15] lay in the range of 0 to 29%.

(Values after patent US20230017045A1, “PYRIDINE AND PYRIMIDINE CARBOXYLATE HERBICIDES AND METHODS OF USE THEREOF” (Dow AgroSciences LLC, priority 2017, published 2023).)
